In paper PMC4030628 (Cancer research, 2013):

Molecular target: STAT3 (Homo sapiens, UniProt P40763)
Test: fluorescence polarization competition with 5-FAM-GpYLPQTV phosphopeptide
Type: binding

STAT3, sequence (P40763 2-770): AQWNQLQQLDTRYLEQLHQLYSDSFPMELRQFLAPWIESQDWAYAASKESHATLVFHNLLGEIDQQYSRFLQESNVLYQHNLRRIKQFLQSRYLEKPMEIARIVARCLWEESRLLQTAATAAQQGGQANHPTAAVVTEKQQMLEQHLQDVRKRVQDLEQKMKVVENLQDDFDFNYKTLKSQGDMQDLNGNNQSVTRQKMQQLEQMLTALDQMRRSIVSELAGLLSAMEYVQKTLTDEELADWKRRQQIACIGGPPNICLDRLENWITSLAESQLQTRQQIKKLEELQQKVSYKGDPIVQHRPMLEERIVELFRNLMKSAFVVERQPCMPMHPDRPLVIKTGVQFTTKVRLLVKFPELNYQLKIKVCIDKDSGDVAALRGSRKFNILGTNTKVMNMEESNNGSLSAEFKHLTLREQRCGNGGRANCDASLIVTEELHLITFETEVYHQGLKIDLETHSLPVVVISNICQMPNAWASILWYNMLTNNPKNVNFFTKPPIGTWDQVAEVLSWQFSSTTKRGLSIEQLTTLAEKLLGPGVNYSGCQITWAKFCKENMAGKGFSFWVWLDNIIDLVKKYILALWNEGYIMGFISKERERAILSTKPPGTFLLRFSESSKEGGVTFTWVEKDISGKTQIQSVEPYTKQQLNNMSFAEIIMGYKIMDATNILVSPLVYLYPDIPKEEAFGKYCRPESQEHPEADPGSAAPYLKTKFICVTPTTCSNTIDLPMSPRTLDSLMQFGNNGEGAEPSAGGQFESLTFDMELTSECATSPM

S3I-1757
IC50: 13.5 ± 0.5 µM
